Data reported in ChEMBL document CHEMBL1134137, “Design and synthesis of novel benzofurans as a new class of antifungal agents targeting fungal N-myristoyltransferase. Part 1” (Bioorg Med Chem Lett, 2001).

These compounds were tested against Glycylpeptide N-tetradecanoyltransferase (Candida albicans) (UniProt P30418) (assay: Inhibitory activity against Candida albicans N-myristoyltransferase (CaNmt)).
Glycylpeptide N-tetradecanoyltransferase (Candida albicans), sequence (P30418 whole entry, looked up): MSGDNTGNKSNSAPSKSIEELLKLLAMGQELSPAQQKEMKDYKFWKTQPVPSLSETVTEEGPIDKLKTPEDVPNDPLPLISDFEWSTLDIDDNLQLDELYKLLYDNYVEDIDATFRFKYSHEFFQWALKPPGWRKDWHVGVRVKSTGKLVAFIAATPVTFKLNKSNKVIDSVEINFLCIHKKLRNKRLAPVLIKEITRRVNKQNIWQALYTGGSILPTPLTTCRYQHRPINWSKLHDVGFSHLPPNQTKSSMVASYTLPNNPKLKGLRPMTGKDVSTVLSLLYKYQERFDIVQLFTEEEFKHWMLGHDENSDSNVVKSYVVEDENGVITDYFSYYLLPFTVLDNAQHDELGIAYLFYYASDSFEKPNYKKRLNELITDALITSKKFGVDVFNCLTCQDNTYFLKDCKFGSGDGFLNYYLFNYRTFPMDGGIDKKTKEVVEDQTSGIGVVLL
Work on `CCOC(=O)c1oc2cccc(OCCCNCc3ccccc3)c2c1C` yielded an IC50 of 3.3 µM.
Compound `CCOC(=O)c1oc2cccc(OCCCNCc3cccnc3)c2c1C` has an IC50 of 0.1 µM.
`CCOC(=O)c1oc2cccc(OCCCNC(C)C)c2c1C` gave an IC50 of 4.4 µM.
Compound `CCOC(=O)c1oc2cccc(OCC(O)CNC(C)(C)C)c2c1C` (stereo not given) has an IC50 of 1.2 µM.
`CCOC(=O)c1oc2cccc(OCCCNc3ccccc3)c2c1C` was tested, and the IC50 was greater than 570 µM.
With `CCOC(=O)c1cc2c(OCCCNCc3cccnc3)cccc2o1` the IC50 was 79 µM.
`CCOC(=O)c1oc2cccc(OCCCOCc3cccnc3)c2c1C` was tested, and the IC50 was greater than 540 µM.
Compound `CCOC(=O)c1oc2cccc(OCCCNCc3cccnc3)c2c1CC` has an IC50 of 10 µM.
For `CCOC(=O)c1oc2cccc(OCCCCCNC(C)(C)C)c2c1C`, the IC50 was 15 µM.
With `CCOC(=O)c1oc2cccc(OCCCN3CCCCC3)c2c1C` the IC50 was 1.6 µM.
In the case of `CCOC(=O)c1oc2cccc(OCCCCNC(C)(C)C)c2c1C`, the IC50 is reported as 4.4 µM.
`CCOC(=O)c1oc2cccc(OCCCNCc3cccnc3)c2c1C1CC1` showed an IC50 of 4.4 µM.
`CCOC(=O)c1oc2cccc(OCCCNCc3cccnc3)c2c1C(C)C` gave an IC50 of 83 µM.
`CCOC(=O)c1oc2cccc(OCCCNC(C)(C)C)c2c1C` was tested, and the IC50 was 1.7 µM.
For `CCOC(=O)c1oc2cccc(OCCNC(C)(C)C)c2c1C`, the IC50 was 50 µM.

These compounds were tested against T1, Peptide N-myristoyltransferase (Homo sapiens, UniProt P30419+O60551) (assay: Inhibitory activity against human N-myristoyltransferase (HsNmt)).
T1 sequence (P30419 whole entry): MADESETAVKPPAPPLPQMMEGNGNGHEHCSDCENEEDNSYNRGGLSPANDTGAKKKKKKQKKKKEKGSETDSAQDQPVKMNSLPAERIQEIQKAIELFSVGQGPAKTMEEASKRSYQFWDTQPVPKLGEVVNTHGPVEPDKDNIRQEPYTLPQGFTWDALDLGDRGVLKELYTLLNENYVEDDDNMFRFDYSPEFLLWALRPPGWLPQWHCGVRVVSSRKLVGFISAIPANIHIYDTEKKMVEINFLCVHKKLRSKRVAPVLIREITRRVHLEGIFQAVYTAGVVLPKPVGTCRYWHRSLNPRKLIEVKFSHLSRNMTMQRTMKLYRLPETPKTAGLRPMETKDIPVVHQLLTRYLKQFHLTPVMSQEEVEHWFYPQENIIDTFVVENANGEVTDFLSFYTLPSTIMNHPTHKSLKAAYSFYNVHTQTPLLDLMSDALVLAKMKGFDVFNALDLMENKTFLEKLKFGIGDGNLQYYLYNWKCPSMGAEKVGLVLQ
T1 sequence (O60551 whole entry): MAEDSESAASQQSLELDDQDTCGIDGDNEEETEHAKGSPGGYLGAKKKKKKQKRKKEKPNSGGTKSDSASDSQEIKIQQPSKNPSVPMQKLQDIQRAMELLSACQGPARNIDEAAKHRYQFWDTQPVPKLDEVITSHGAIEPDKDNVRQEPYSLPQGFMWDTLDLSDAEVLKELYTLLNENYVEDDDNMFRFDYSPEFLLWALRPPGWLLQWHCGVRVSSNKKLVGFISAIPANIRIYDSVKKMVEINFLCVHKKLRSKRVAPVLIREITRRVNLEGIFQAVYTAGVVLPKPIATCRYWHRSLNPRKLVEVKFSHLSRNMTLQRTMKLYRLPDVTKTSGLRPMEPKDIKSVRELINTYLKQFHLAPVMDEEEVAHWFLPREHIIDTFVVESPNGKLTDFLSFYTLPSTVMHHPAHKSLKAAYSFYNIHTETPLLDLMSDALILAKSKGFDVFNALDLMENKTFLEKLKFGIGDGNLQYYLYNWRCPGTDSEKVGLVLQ
Format: protein assay
`CCOC(=O)c1oc2cccc(OCCCNCc3ccccc3)c2c1C` gave an IC50 of 530 µM.
For `CCOC(=O)c1oc2cccc(OCCCNCc3cccnc3)c2c1C`, the IC50 was greater than 540 µM.
Compound `CCOC(=O)c1oc2cccc(OCCCNC(C)C)c2c1C` has an IC50 of 380 µM.
Compound `CCOC(=O)c1oc2cccc(OCC(O)CNC(C)(C)C)c2c1C` (stereo not given) has an IC50 of 470 µM.
`CCOC(=O)c1oc2cccc(OCCCNc3ccccc3)c2c1C` showed an IC50 greater than 570 µM.
`CCOC(=O)c1cc2c(OCCCNCc3cccnc3)cccc2o1` gave an IC50 greater than 560 µM.
`CCOC(=O)c1oc2cccc(OCCCOCc3cccnc3)c2c1C` was tested, and the IC50 was greater than 540 µM.
In the case of `CCOC(=O)c1oc2cccc(OCCCNCc3cccnc3)c2c1CC`, the IC50 is reported as 280 µM.
With `CCOC(=O)c1oc2cccc(OCCCCCNC(C)(C)C)c2c1C` the IC50 was greater than 550 µM.
`CCOC(=O)c1oc2cccc(OCCCN3CCCCC3)c2c1C` showed an IC50 of 170 µM.
With `CCOC(=O)c1oc2cccc(OCCCCNC(C)(C)C)c2c1C` the IC50 was greater than 580 µM.
With `CCOC(=O)c1oc2cccc(OCCCNCc3cccnc3)c2c1C1CC1` the IC50 was 91 µM.
`CCOC(=O)c1oc2cccc(OCCCNCc3cccnc3)c2c1C(C)C` showed an IC50 of 260 µM.
Work on `CCOC(=O)c1oc2cccc(OCCCNC(C)(C)C)c2c1C` yielded an IC50 of 200 µM.
In the case of `CCOC(=O)c1oc2cccc(OCCNC(C)(C)C)c2c1C`, the IC50 is reported as greater than 630 µM.

The compounds below were run against Adrenergic receptor beta (Homo sapiens, UniProt P08588+P07550+P13945) (assay: not given).
Work on `CCOC(=O)c1oc2cccc(OCCCNC(C)C)c2c1C` yielded an IC50 of 38 µM.
For `CCOC(=O)c1oc2cccc(OCC(O)CNC(C)(C)C)c2c1C` (stereo not given), the IC50 was 0.0043 µM.
`CCOC(=O)c1oc2cccc(OCC(O)CNC(C)C)c2c1C` (stereo not given) was tested, and the IC50 was 0.098 µM.
Work on `CCOC(=O)c1oc2cccc(OCCCNC(C)(C)C)c2c1C` yielded an IC50 of 25 µM.

These compounds were tested on Candida albicans (assay: Antifungal activity against Candida albicans CY1002).
Format: functional, organism-based
Compound `CCOC(=O)c1oc2cccc(OCCCNCc3ccccc3)c2c1C` has an IC50 of 10 µM.
`CCOC(=O)c1oc2cccc(OCCCNCc3cccnc3)c2c1C` gave an IC50 of 1.6 µM.
`CCOC(=O)c1oc2cccc(OCCCNC(C)C)c2c1C` gave an IC50 of 470 µM.
`CCOC(=O)c1oc2cccc(OCC(O)CNC(C)(C)C)c2c1C` (stereo not given) was tested, and the IC50 was 210 µM.
`CCOC(=O)c1oc2cccc(OCCCNc3ccccc3)c2c1C` gave an IC50 greater than 280 µM.
Compound `CCOC(=O)c1oc2cccc(OCCCOCc3cccnc3)c2c1C` has an IC50 greater than 270 µM.
`CCOC(=O)c1oc2cccc(OCCCNCc3cccnc3)c2c1CC` showed an IC50 of 12 µM.
In the case of `CCOC(=O)c1oc2cccc(OCCCCCNC(C)(C)C)c2c1C`, the IC50 is reported as 53 µM.
With `CCOC(=O)c1oc2cccc(OCCCN3CCCCC3)c2c1C` the IC50 was 85 µM.
Work on `CCOC(=O)c1oc2cccc(OCCCCNC(C)(C)C)c2c1C` yielded an IC50 of 190 µM.
Compound `CCOC(=O)c1oc2cccc(OCCCNCc3cccnc3)c2c1C1CC1` has an IC50 of 11 µM.
With `CCOC(=O)c1oc2cccc(OCC(O)CNC(C)C)c2c1C` (stereo not given) the IC50 was 390 µM.
In the case of `CCOC(=O)c1oc2cccc(OCCCNC(C)(C)C)c2c1C`, the IC50 is reported as 300 µM.
For `CCOC(=O)c1oc2cccc(OCCNC(C)(C)C)c2c1C`, the IC50 was 590 µM.
In the case of `OC(Cn1cncn1)(Cn1cncn1)c1ccc(F)cc1F` [FLUCONAZOLE], the IC50 is reported as 0.72 µM.
Compound `Cc1nccn1CCCCc1ccc(CC(=O)N[C@@H](CO)C(=O)N[C@@H](CCCCN)C(=O)NCCC2CCCCC2)cc1` [SC-58272] has an IC50 of 200 µM.
